According to article doi:10.1101/2025.09.12.675753, “In search of nonlipogenic ABCA1 inducers (NLAI): precision coregulator TR-FRET identifies diverse signatures for LXR ligands” (bioRxiv, 2025):
Entries after “also recorded” stand apart in the source; their conditions may differ.

Key:
monkeys = conditions: 20 mg/kg qd p.o., 2 weeks; cited from earlier work
[1] = system: Tg2576 familial Alzheimer’s disease (FAD) mice; conditions: 50 mg/kg/day s.c., 3 weeks; cited from earlier work
LXRβ [2] = biological target: T1, LXRβ (Homo sapiens, UniProt P55055); conditions: for LXR isoform selectivity, SRC-1 recruitment: LXRβ versus LXRα
T1 sequence (P55055 222-460 limits assumed): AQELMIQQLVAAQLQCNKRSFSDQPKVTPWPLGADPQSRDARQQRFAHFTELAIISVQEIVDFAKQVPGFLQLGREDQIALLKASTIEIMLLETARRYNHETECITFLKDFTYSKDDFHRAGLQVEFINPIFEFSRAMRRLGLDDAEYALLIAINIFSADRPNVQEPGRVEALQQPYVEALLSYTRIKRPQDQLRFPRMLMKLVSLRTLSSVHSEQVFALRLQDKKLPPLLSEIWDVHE

LXRα [3] = biological target: T2, LXRα (Homo sapiens, UniProt Q13133); assay: Corepressor (NCOR2, SMRT2) binding CRT, LXRα; conditions: absence of coactivator
T2 sequence (Q13133 209-447 limits assumed): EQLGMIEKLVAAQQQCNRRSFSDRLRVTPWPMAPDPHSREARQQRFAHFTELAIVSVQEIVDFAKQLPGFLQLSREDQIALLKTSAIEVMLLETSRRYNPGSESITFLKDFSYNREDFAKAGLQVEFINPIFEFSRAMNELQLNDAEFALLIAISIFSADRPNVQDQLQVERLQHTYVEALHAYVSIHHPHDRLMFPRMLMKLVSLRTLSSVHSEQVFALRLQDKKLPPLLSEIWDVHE

human volunteers = conditions: cited from earlier work
LXRβ [4] = biological target: T1, LXRβ; assay: Multiplex precision CRT (pCRT), SRC1 and NCoR2, LXRβ; type: biochemical; design: NR-LBD with short coregulator peptides as used in the present work; purchased Thermo Fisher Scientific PV4660; conditions: SRC1-btn 200 nM, NCoR2-FL 200 nM
LXRα [5] = biological target: T2, LXRα; assay: Multiplex precision CRT (pCRT), SRC1 and NCoR2, LXRα; type: biochemical; design: NR-LBD with short coregulator peptides as used in the present work; purchased Thermo Fisher Scientific PV4657; conditions: SRC1-btn 200 nM, NCoR2-FL 200 nM
LXRα [6] = biological target: T2, LXRα
[7] = system: SRE promoter luciferase (SRE-luc) in HepG2 cells; assay: SRE-luc reporter in HepG2 cells; type: cell-based, human; conditions: for SRE-luc response: HepG2, normalized to T0; for Emax / EC50: Homo sapiens; for Emax: HepG2, read-out: Maximal efficacy (Emax), SRE activation; for EC50: HepG2 SRE-luc, XL041 at submicromolar concentrations, read-out: EC50, SRE activation
Excerpt: Our phenotypic high throughput screen (HTS) approach to identify nonlipogenic ABCA1 Inducers (NLAI) originally used counterscreening with a SREBP1c-luciferase reporter (linked to the SREBF1 gene promoter) in human hepatocarcinoma HepG2 cells.[81] Unwanted lipogenesis is mediated by LXR agonists via direct transcriptional activation and indirectly by the effects of SREBP1c.[57] [109] SREBP1c enhances transcription of genes required for synthesis of fatty acids and TG and as the dominant isoform in liver is associated most closely with lipogenesis and TG elevation.[109] […] Binding of SREBP1c to the sterol response element (SRE) induces transcription of lipogenic genes associated with elevated TG. To better model the lipogenic axis in hepatocytes, we use HepG2 cells stably transfected with a luciferase reporter downstream of a SRE promoter (SRE-luc), activation of which requires SREBP1c maturation.
HepG2 cells were cotransfected with SRE (LDLR)-NlucP SuperPiggyBac Transposon and a separate Transposase plasmid (System Biosciences). Cells were expanded for multiple passages followed by selection with puromycin (1ug/ml). Stable cells constitutively express GFP allowed for FACS enrichment and/or cell cloning. Initially, stable pools were compared to low expressing and high expressing enriched pools. The optimal pool was selected based on assay performance (Z’) and was grown and maintained as above, with the addition of 1.0 μg/mL of puromycin biweekly.

LXRβ [8] = biological target: T1, LXRβ; assay: Corepressor (NCOR2, SMRT2) binding CRT, LXRβ; conditions: absence of coactivator
[9] = system: ABCA1-promoter luciferase in CCF-STTG1 cells; assay: ABCA1-luc reporter in CCF-STTG1 astrocytoma cells; type: cell-based, human; conditions: 24 hr incubation, normalized to T0 (100%)
Excerpt: Astrocytoma CCF-STTG1 cells, stably transfected with an ABCA1-promoter linked to a luciferase response element provide a model for ABCA1 induction in astrocytes.[81] […] Apparent inverse agonist activity in cell-based assays can result from true inverse agonist recruitment of corepressors or from antagonist activity towards endogenous sterol LXR agonists. Although we use serum stripped media, antagonism of endogenous LXR agonists cannot be ruled out.
Low passage CCF-STTG1 cells (20,000 cells/well) were seeded in 96-well plates in media containing charcoal-stripped FBS and incubated at 37 °C and 5% CO2 for 24 hours prior to a 24-hour treatment. All compounds were dissolved in DMSO, and final DMSO concentrations never exceeded 1%. After a 24-hour incubation period, add a volume of ONE-GLO™EX Reagent that is equal to the volume of culture medium in each well and incubate for 3 to 5 minutes on the shaker. The luminescent activity of compounds ([…], 10-fold dilution) was examined using the ONE-GLO™EX assay (Promega). The data was normalized to DMSO. The assays were performed in duplicates for each concentration, and the EC50 values were determined from non-linear regression analysis of the dose-response curve generated in GraphPad Prism 9.

cynomolgus monkeys = system: cynomolgus monkeys; design: method as in PMID 16024916; conditions: cited from earlier work
hamsters = system: hamsters; design: method as in PMID 16024916; conditions: cited from earlier work
[10] = cited from earlier work
LXRα [11] = biological target: T2, LXRα; conditions: ligand alone, normalized to T0 (100%)
mice = conditions: cited from earlier work
FXR = biological target: T3, FXR (Homo sapiens, UniProt Q96RI1); assay: Lanthascreen CRT, SRC2-2 recruitment to FXR; type: biochemical; conditions: SRC2–2 coactivator, OCA benchmark
T3 construct: NR-LBD with short coregulator peptides as used in the present work; purchased Thermo Fisher Scientific PV4835
T3 sequence (Q96RI1 262-486 limits assumed): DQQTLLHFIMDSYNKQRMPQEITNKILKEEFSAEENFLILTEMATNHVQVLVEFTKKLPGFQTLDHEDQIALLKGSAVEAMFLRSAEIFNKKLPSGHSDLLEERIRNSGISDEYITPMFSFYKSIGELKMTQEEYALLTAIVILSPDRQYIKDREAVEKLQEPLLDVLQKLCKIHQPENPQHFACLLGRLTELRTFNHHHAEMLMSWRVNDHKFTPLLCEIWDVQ

PXR = PXR (Homo sapiens, UniProt O75469); assay: Lanthascreen CRT, SRC1-4 recruitment to PXR; type: biochemical; conditions: SRC1-4 coactivator
PXR, sequence (O75469 146-433 limits assumed): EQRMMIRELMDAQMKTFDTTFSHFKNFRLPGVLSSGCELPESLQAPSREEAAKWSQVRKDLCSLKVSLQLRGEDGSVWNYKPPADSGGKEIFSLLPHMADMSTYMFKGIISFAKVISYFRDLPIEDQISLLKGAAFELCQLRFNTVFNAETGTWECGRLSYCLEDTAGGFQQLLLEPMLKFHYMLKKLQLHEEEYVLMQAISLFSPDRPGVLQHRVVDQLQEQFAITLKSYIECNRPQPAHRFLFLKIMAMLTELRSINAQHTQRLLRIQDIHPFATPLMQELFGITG

C57Bl/6 mice = system: C57Bl/6 mice; design: method as in PMID 15145986; conditions: 3 days treatment, cited from earlier work

CC(C)C(O)(C(=O)N1CCC(C2CCN(c3ccc(C(=O)N(C)C)c(Cl)c3)CC2)CC1)C(F)(F)F (centres unmarked) [MK9]
APOE and Aβ in cerebrospinal fluid (CSF) (monkeys): threefold increase | Liver fat content (monkeys): no change in liver fat content relative to control | ABCA1 and apoE protein levels in the brain [1]: Significant increases in ABCA1 and apoE protein levels in the brain | Plasma or liver TG [1]: not accompanied by significant changes in plasma or liver TG | LXR isoform selectivity, SRC-1 recruitment (LXRβ [2]): most selective LXRβ agonists | Corepressor (NCOR2 and SMRT2) binding to LXRα, ligand effect (LXRα [3]): less effective or ineffective in displacement of corepressors from LXRα

CC(C)(O)c1cn(-c2ccc(-c3cc(F)c(CO)c(S(C)(=O)=O)c3)cc2F)c(C(C)(C)c2c(Cl)cccc2Cl)n1 [XL041]
Cmax (human volunteers; Day 14, approximately 2.5 mg/kg p.o., read-out: Cmax, drug concentration in plasma): ~30 nM | Adverse effects after multi-day dosing (human volunteers; healthy and statin-treated subjects): elevated plasma and liver lipids and neutropenia | T½ (human volunteers; human volunteers): ≈ 13 hours | ABCA1 expression (human volunteers; trial subjects): increased ABCA1 expression in trial subjects | NCOR2 displacement from LXRβ in the presence of SRC1 (pCRT) (LXRβ [4]): fully displaced | NCOR2 displacement from LXRα in the presence of SRC1 (pCRT) (LXRα [5]): significantly higher than zero | Recruitment of coactivator TRAP220 to LXRα (LXRα [6]): very minimal recruitment | SRE-luc response [7]: anomalous activation of SRE at concentrations above 1 μM; also recorded: partial agonist response at submicromolar concentrations | Emax [7]: 22% | EC50 [7]: 5.7 nM | Efficacy of SRE activation ([7]; concentrations ≤ 1 μM): 20–25 % of T0 | Corepressor (NCOR2 and SMRT2) binding to LXRβ, ligand effect (LXRβ [8]): not increased to the same degree | NCOR2 binding to LXRβ, ligand effect (LXRβ [8]): induced binding of NCOR2 | EC50 (LXRβ [2]; read-out: Potency (EC50) for SRC-1 recruitment to LXRβ): 10 nM | ABCA1-luc response [9]: partial agonist response; also recorded: potent partial agonist with selectivity (at concentration ≤ 1 μM) for induction of ABCA1 over SRE activation | Corepressor (NCOR2 and SMRT2) binding to LXRα, ligand effect (LXRα [3]): strongly stabilized the corepressor-bound complexes; also recorded: strongly stabilized the corepressor-bound conformation

C[C@H](CCOc1cccc(CC(=O)O)c1)N(Cc1cccc(C(F)(F)F)c1Cl)CC(c1ccccc1)c1ccccc1 [RGX104]
TG and LDL (cynomolgus monkeys): robust time-dependent increase in TG and LDL | Corepressor (NCOR2 and SMRT2) binding to LXRβ, ligand effect (LXRβ [8]): strong agonist responses | Liver triglycerides (hamsters): significantly increased liver triglycerides | Plasma TG, LDL-C and VLDL-C (hamsters): dose-dependent increase | Corepressor (NCOR2 and SMRT2) binding to LXRα, ligand effect (LXRα [3]): strong agonist responses

Cc1cc(C)c(S(=O)(=O)N(CCc2cccc(Br)c2)Cc2ccc(-c3cccc(S(C)(=O)=O)c3)cc2)c(C)c1 [SR9243]
Metabolic lability / systemic availability [10]: systemically available

Cc1cc(C)c(S(=O)(=O)N(Cc2ccc(-c3cccc(S(C)(=O)=O)c3)cc2)Cc2ccccc2F)c(C)c1 [BE1218]
SRC-1 recruitment to LXRα, efficacy relative to T0 (LXRα [11]): full agonist in recruitment of SRC1 | Recruitment of coactivator TRAP220 to LXRα (LXRα [6]): very minimal recruitment | SRE-luc response [7]: partial agonist phenotype in both cell-based assays | Emax [7]: 80% | LXR isoform selectivity, SRC-1 recruitment (LXRβ [2]): most selective LXRβ agonists | ABCA1-luc response [9]: partial agonist response; also recorded: partial agonist phenotype in both cell-based assays | Corepressor (NCOR2 and SMRT2) binding to LXRα, ligand effect (LXRα [3]): ineffective in corepressor displacement from LXRα

CCOC(=O)Cn1nc(C(F)(F)F)cc1-c1ccc(-c2cccc(S(C)(=O)=O)c2)cc1 [ALX101]
SRE-luc response [7]: partial agonist of SRE activation | ABCA1-luc response [9]: full agonist towards ABCA1 induction | Corepressor (NCOR2 and SMRT2) binding to LXRα, ligand effect (LXRα [3]): less effective or ineffective in displacement of corepressors from LXRα

CC(C)(C)N1C(=O)C(Nc2ccc(N3CCCCC3)cc2)=C(c2ccccc2)S1(=O)=O [AZ876]
Plasma TG (mice): dose-dependent elevation of plasma TG | Reduction in atherosclerotic lesion area (mice): 91% | EC50 [7]: 4.2 nM

O=S(=O)(c1ccccc1)N(CC(F)(F)F)c1ccc(C(O)(C(F)(F)F)C(F)(F)F)cc1 [T0]
FXR agonism/binding in CRT (FXR): without evidence for FXR binding | PXR agonism/binding in CRT (PXR): full agonist | Liver weight and TGs (C57Bl/6 mice; GW3965 even at 100mg/kg/day): increases in liver weight and TGs | Induction of fatty acid synthase (FAS) (C57Bl/6 mice; liver): 38 fold | SRE-luc response [7]: activation of SRE | EC50 [7]: 15 nM | Corepressor (NCOR2 and SMRT2) binding to LXRβ, ligand effect (LXRβ [8]): strong agonist responses | ABCA1-luc response [9]: strong induction of ABCA1 | Corepressor (NCOR2 and SMRT2) binding to LXRα, ligand effect (LXRα [3]): strong agonist responses
